Measurements published in patent US20050112075A1, “Reduction of hair growth” (priority 2003, published 2005).

Tested on: Human hair follicles in growth phase (anagen)
Test: Human hair follicle growth assay
Format: cell-based
Settings: for Hair follicle length increase (mm), Treated: day 0 to day 7 in culture
Experimental: Human hair Follicle Growth Assay:
Human hair follicles in growth phase (anagen) were isolated from face-lift tissue (obtained from plastic surgeons) under dissecting scope using a scalpel and watchmakers forceps. The skin was sliced into thin strips exposing 2-3 rows of follicles that could readily be dissected. Follicles were placed into 0.5 ml William's E medium (Life Technologies, Gaithersburg, Md.) supplemented with 2 mM L-glutamine, 10 μg/ml insulin, 10 ng/ml hydrocortisone, 100 units of penicillin, 0.1 mg/ml streptomycin and 0.25 μg/ml amphotericin B. The follicles were incubated in 24-well plates (1 follicle/well) at 37° C. in an atmosphere of 5% CO2 and 95% air. Compounds are dissolved into dimethyl sulfoxide as 100-fold stock solution. The control hair follicles were treated with dimethyl sulfoxide without prostaglandin. The follicles were photographed in the 24-well plates under the dissecting scope at a power of 10×. Typically, image recordings were made on day 0 (day follicles were placed in culture), and again on day 7. The length of hair follicle was assessed using an image analysis software system. The growth of hair fiber was calculated by the subtracting the follicle length on day 0 from that determined on day 7.

[1] = dose 50 μM, vs dimethyl sulfoxide control
[2] = dose 1 μM, dose-dependence study
[3] = dose 5 μM, dose-dependence study
[4] = dose 10 μM, dose-dependence study
[5] = dose 30 μM, vs dimethyl sulfoxide control

Structure (SMILES) | Hair follicle length increase (mm), Treated (dose 50 μM) | % Reduction of human hair follicle growth [1] | % Reduction of human hair follicle growth [2] | Growth of follicle (mm), Treated [2] | % Reduction of human hair follicle growth [3] | Growth of follicle (mm), Treated [3] | % Reduction of human hair follicle growth [4] | Growth of follicle (mm), Treated [4] | Hair follicle length increase (mm), Treated (dose 30 μM) | % Reduction of human hair follicle growth [5] | further results
CCCCCC=CC=C1CCC(=O)C1C/C=C\CCCC(=O)O (centres unmarked) [9,10-Dihydro-15-deoxy-^Δ12,14-PGJ2, 9,10-dihydro-15-deoxy-Δ^12,14-PGJ2] | 0.02 ± 0.03 mm | 98.8 ± 1.9% | – | – | – | – | – | – | – | – | –
C=C1C[C@H](O)[C@H](C/C=C\CCCC(=O)O)[C@H]1/C=C/[C@@H](O)CCCCC [11-Deoxy-11-methylene PGD2] | 1.11 ± 0.14 mm | 36.9 ± 8.0% | – | – | – | – | – | – | – | – | –
CCCCC[C@@](C)(O)/C=C/[C@H]1C(=O)C[C@H](O)[C@@H]1C/C=C\CCCC(=O)O [15(R)-15-Methyl PGD2] | 0.04 ± 0.05 mm | 97.5 ± 3.1% | – | – | – | – | – | – | – | – | –
CCCCC[C@](C)(O)/C=C/[C@H]1C(=O)C[C@H](O)[C@@H]1C/C=C\CCCC(=O)O [15(S)-15-Methyl PGD2] | – | – | – | – | – | – | – | – | – | – | Hair follicle length increase (mm), Treated (dose 100 μM): 0.08 ± 0.06 mm; % Reduction of human hair follicle growth (dose 100 μM, vs dimethyl sulfoxide control): 92.7 ± 5.5%
CCCCC/C=C/C=C1/C(=O)C[C@H](O)[C@@H]1C/C=C\CCCC(=O)O [15-Deoxy-Δ^12,14-PGD2] | 0.10 ± 0.08 mm | 94.3 ± 4.5% | – | – | – | – | – | – | – | – | –
CCCCC/C=C/C=C1/C(=O)C=C[C@@H]1C/C=C\CCCC(=O)O [15-Deoxy-Δ^12,14-PGJ2] | – | – | 0% | 1.42 ± 0.37 mm | 34.8% | 0.21 ± 0.13 mm | 94.3% | 0.08 ± 0.07 mm | 0.10 ± 0.09 mm | 94.7 ± 5.0% | –
CCCCC(C)(C)[C@H](O)/C=C/[C@H]1C(=O)C[C@H](O)[C@@H]1C/C=C\CCCC(=O)O [16,16-Dimethyl PGD2] | 0.10 ± 0.05 mm | 94.3 ± 2.8% | – | – | – | – | – | – | – | – | –
O=C(O)CCC/C=C\C[C@H]1[C@@H](O)CC(=O)[C@@H]1/C=C/[C@@H](O)CCc1ccccc1 [17-Phenyl trinor PGD2] | 0.10 ± 0.12 mm | 93.8 ± 7.4% | – | – | – | – | – | – | – | – | –
CCCCC[C@H](O)/C=C/[C@H]1C(=O)C[C@H](O)[C@@H]1C/C=C\CCCC(=O)O [PGD2, prostaglandin D2] | – | – | 4.4% | 1.51 ± 0.28 mm | 12.7% | 1.38 ± 0.30 mm | 38.0% | 0.98 ± 0.32 mm | 0.24 ± 0.10 mm | 87.3 ± 5.0% | Hair growth inhibition profile (dose dependence, in words): dose dependent; Reduction of human hair follicle growth (in words): significant reduction of human hair follicle growth
CCCCC[C@H](O)/C=C/[C@H]1C(=O)C=C[C@@H]1C/C=C\CCCC(=O)O [PGJ2] | – | – | 9.5% | 1.43 ± 0.34 mm | 34.8% | 1.03 ± 0.35 mm | 68.4% | 0.50 ± 0.29 mm | 0.16 ± 0.25 mm | 91.5 ± 13% | Hair growth inhibition profile (dose dependence, in words): dose dependent; Reduction of human hair follicle growth (in words): reduce hair growth
CCCCC[C@H](O)C/C=C1/C(=O)C=C[C@@H]1C/C=C\CCCC(=O)O [Δ^12-PGJ2] | – | – | 0.7% | 1.40 ± 0.44 mm | 10.6% | 1.26 ± 0.38 mm | 77.3% | 0.32 ± 0.15 mm | 0.29 ± 0.46 mm | 84.6 ± 24% | –
